# Tests used:
# Assay in all cases: relative viability (nuclei count vs DMSO), 5 days (fraction); higher = more cells survive
# Entinostat + Phenformin = compound: Nc1ccccc1NC(=O)c1ccc(CNC(=O)OCc2cccnc2)cc1 [Entinostat] + N=C(N)NC(=N)NCCc1ccccc1 [Phenformin] (partner 250 µM)
# Procedure, shortened: (§1)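 Lung cancer cell lines in 1536-well plates got either a single drug or a fixed anchor-drug dose together with five library-drug doses (not always all listed) in √10 steps, by pin tool, on the day after seeding. Nuclei were counted after 5 days, and relative viability is the treated-to-vehicle ratio of nuclei counts. Values are medians of duplicate plates.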
# [1] = compound: C1COCCN1C2=NC(=NC3=C2OC4=C3C=CC=N4)C5=CC(=CC=C5)NC(=O)C6=CN=C(C=C6)N + CC(=O)Nc1cccc(-n2c(=O)n(C3CC3)c(=O)c3c(Nc4ccc(I)cc4F)n(C)c(=O)c(C)c32)c1 [Trametinib] (partner 0.02 µM)
# Procedure, shortened: as §1
# Entinostat + Olaparib = compound: Nc1ccccc1NC(=O)c1ccc(CNC(=O)OCc2cccnc2)cc1 [Entinostat] + O=C(c1cc(Cc2n[nH]c(=O)c3ccccc23)ccc1F)N1CCN(C(=O)C2CC2)CC1 [Olaparib] (partner 8 µM)
# Procedure, shortened: as §1
# Entinostat + Navitoclax = compound: Nc1ccccc1NC(=O)c1ccc(CNC(=O)OCc2cccnc2)cc1 [Entinostat] + CC1(C)CCC(c2ccc(Cl)cc2)=C(CN2CCN(c3ccc(C(=O)NS(=O)(=O)c4ccc(N[C@H](CCN5CCOCC5)CSc5ccccc5)c(S(=O)(=O)C(F)(F)F)c4)cc3)CC2)C1 [Navitoclax] (partner 0.5 µM)
# Procedure, shortened: as §1
Cell Line,relative viability (Entinostat + Phenformin; first compound 0.02 µM),relative viability (Entinostat + Phenformin; first compound 0.06325 µM),relative viability (Entinostat + Phenformin; first compound 0.2 µM),relative viability (Entinostat + Phenformin; first compound 0.6325 µM),relative viability (Entinostat + Phenformin; first compound 2 µM),relative viability ([1]; first compound 0.02 µM),relative viability ([1]; first compound 0.06325 µM),relative viability ([1]; first compound 0.2 µM),relative viability ([1]; first compound 0.6325 µM),relative viability ([1]; first compound 2 µM),relative viability (Entinostat + Olaparib; first compound 0.02 µM),relative viability (Entinostat + Olaparib; first compound 0.06325 µM),relative viability (Entinostat + Olaparib; first compound 0.2 µM),relative viability (Entinostat + Olaparib; first compound 0.6325 µM),relative viability (Entinostat + Olaparib; first compound 2 µM),relative viability (Entinostat + Navitoclax; first compound 0.02 µM),relative viability (Entinostat + Navitoclax; first compound 0.06325 µM),relative viability (Entinostat + Navitoclax; first compound 0.2 µM),relative viability (Entinostat + Navitoclax; first compound 0.6325 µM),relative viability (Entinostat + Navitoclax; first compound 2 µM)
LU99A,0.783,0.891,0.722,0.609,0.545,0.592,0.576,0.547,0.452,0.389,0.236,0.264,0.274,0.198,0.164,0.752,0.916,0.75,0.567,0.421
LXF-289,0.538,0.554,0.532,0.414,0.354,0.676,0.769,0.671,0.67,0.462,1.07,0.978,0.875,0.714,0.523,0.929,0.908,0.922,0.786,0.567
NCI-H23,0.71,0.667,0.796,0.762,0.501,0.337,0.322,0.359,0.409,0.197,0.282,0.242,0.237,0.179,0.12,0.727,0.88,0.873,0.668,0.433
NCI-H322M,0.799,0.963,0.99,0.809,0.664,0.449,0.519,0.521,0.412,0.475,0.722,0.952,0.887,0.815,0.618,1.3,1.17,1.27,1.27,0.845
NCI-H441,0.679,1.03,0.757,0.397,0.184,0.453,0.423,0.29,0.337,0.312,0.625,0.467,0.317,0.18,0.113,0.689,0.505,0.632,0.233,0.0467
NCI-H460,0.511,0.479,0.298,0.0601,0.0314,0.166,0.263,0.142,0.133,0.0197,0.37,0.328,0.137,0.0676,0.0406,1.08,0.973,1.04,0.0885,0.0187
NCI-H520,0.497,0.723,0.701,0.615,0.49,0.493,0.806,0.758,0.528,0.494,0.336,0.346,0.272,0.237,0.149,1.02,1.02,1.21,0.916,0.456
NCI-H596,0.752,0.74,0.823,0.734,0.554,0.772,0.87,0.735,0.724,0.593,0.748,0.662,0.667,0.558,0.405,0.923,0.962,0.861,0.8,0.581
NCI-H647,0.54,0.555,0.405,0.158,0.0748,0.414,0.483,0.419,0.378,0.234,0.522,0.333,0.426,0.0646,0.0559,0.96,0.995,0.928,0.374,0.0716
NCI-H727,0.457,0.689,0.581,0.436,0.43,0.378,0.332,0.374,0.416,0.364,0.73,0.735,0.642,0.677,0.532,0.443,0.356,0.312,0.177,0.163
NCI-H838,0.706,0.852,0.677,0.426,0.198,0.52,0.529,0.463,0.41,0.298,0.819,0.79,0.759,0.452,0.201,1.21,1.27,1.17,0.694,0.296
NCI-H1355,0.48,0.439,0.502,0.368,0.332,0.452,0.427,0.395,0.367,0.372,0.669,0.698,0.647,0.535,0.356,0.987,0.946,0.747,0.583,0.444
NCI-H1395,0.441,0.494,0.421,0.417,0.416,0.962,0.956,0.898,1.02,0.875,0.445,0.466,0.423,0.398,0.408,1.12,1.25,1.19,0.875,0.794
NCI-H1437,0.288,0.261,0.199,0.197,0.215,0.492,0.551,0.511,0.419,0.224,0.491,0.378,0.309,0.228,0.196,1.01,0.679,0.432,0.216,0.155
NCI-H1650,0.54,0.498,0.49,0.419,0.256,0.535,0.497,0.575,0.526,0.39,0.828,0.967,0.819,0.527,0.363,1.2,1.28,1.1,0.673,0.673
NCI-H1651,0.326,0.371,0.453,0.335,0.185,0.842,0.867,0.836,0.818,0.731,0.2,0.199,0.199,0.174,0.154,1.02,1.06,1.09,0.709,0.273

# Source: the supplement of paper PMC10307832
